Activity calls are given as the source filed them.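 Rule for the calls: active = compounds giving half or more protection of infected cells from virus-caused growth loss, again on retest; inactive = the rest.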
System: CEM cells HIV-1 protection, formazan growth assay
Experiment: NCI AIDS Antiviral Assay
Settings: for IC50: measured here: growth of uninfected CEM cells
Outline: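 Category rules: moderately active means at least 50% protection on retest, and confirmed active means 100% protection reproducibly. The underlying data came from a formazan growth assay in HIV-1-infected CEM cells.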

SMILES | EC50 [µM] | IC50 [µM] | outcome
Cc1cccc(NC(=O)/C(=N\N)C(c2cnc3ccc([N+](=O)[O-])cc3n2)[N+](=O)[O-])c1C (configuration not stated) | > 85.1 | 66.1 | –
O=C1c2cccc(NCCNCCO)c2C(=O)c2cccc(NCCNCCO)c21 | – | – | inactive
CCOP(=O)(OCC)C(N)C(C)C (configuration not stated) | > 513 | > 513 | –
CS(=O)(=O)OC1CCC2(C#N)CCC1C2=O (configuration not stated) | > 1020 | > 1020 | –
Cc1cc(C)nc(NS(=O)(=O)c2ccc(N=c3c4ccccc4n(-c4ccccc4)c4ccccc34)cc2)n1 | – | – | inactive
Cc1cccc2c1Sc1ccccc1C2NC(=O)CCN(C)C (configuration not stated) | > 550 | 31.6 | –
CN1CC2CC3=C(CCC45CC6C(C=C34)C63CCC4(CC67CCC8C9(C)CCCC8%10C(C6CC4CC7%10)N(C)C9)OC53)C(C)(C2)C1 (configuration not stated) | – | – | inactive
FC1(F)SC2C3CCC(C3)C2C1(F)F (configuration not stated) | – | – | inactive
CCOC(CNc1nn2c(C)nnc2s1)OCC | > 200 | > 200 | –
CC(=O)C1=CSC2[C@H](NC(=O)Cc3ccccc3)C(=O)N2C1C(=O)OC(c1ccccc1)c1ccccc1 (some centres not stated) | > 25.7 | 15.8 | –
N#Cc1nc(C2SCCCS2)oc1N | > 200 | > 200 | –
O=C1OC(c2ccccc2)(c2ccccc2)c2ccsc21 | > 200 | 69.2 | –
N#Cc1c2c(cn3c1nc1ccccc13)CCCCC2 | > 151 | > 151 | –
O=C(/C=C/c1ccc(O)c(O)c1)O[C@@H](C(=O)O)[C@@H](OC(=O)/C=C/c1ccc(O)c(O)c1)C(=O)O | > 200 | 17 | –
O=C(O)c1ccc(OCc2nc3cc(C(F)(F)F)ccc3nc2-c2ccccc2)cc1 | > 200 | 33.9 | –
O=[N+]([O-])C1C2C=CC(C2)[C@H]1c1ccccc1Cl (some centres not stated) | – | – | inactive
O=C(NCCc1ccccc1)/C(=C\c1ccc(Cl)cc1Cl)NC(=O)c1ccccc1 | > 200 | > 200 | –
c1c(N2CCOCC2)ssc1=[N+]1CCOCC1 | – | – | inactive
O=C1NCCCCC1CCCC#Cc1ccccc1 (configuration not stated) | > 74.1 | 45.7 | –
COC(=O)C1=C(OC)C(C(=O)OC)C23CCCC12C(C(=O)OC)C(OC)C3C(=O)OC (configuration not stated) | > 135 | > 135 | –
CC(C)(C)N1OC2(CCCCC2)n2c(=O)c3ccccc3c(=O)n2C1c1ccccc1 (configuration not stated) | > 589 | > 589 | –
Oc1c(NCn2nc(CCCCCCCCc3nn(CNc4ccc5ccccc5c4O)c(=S)o3)oc2=S)ccc2ccccc12 | > 200 | 35.5 | –

SMILES | EC50 [µM] | IC50 [µM] | outcome
O=P1(N(CCCl)CCCl)NCCCO1 (configuration not stated) | > 955 | 302 | –
CCN(CC)CCOC(=O)C(c1ccccc1)c1ccccc1 | > 200 | > 200 | –
COC(=O)c1cc2nc(NC(C)=O)sc2n1C | > 200 | > 200 | –
CCOC(=O)/C(C#N)=C/c1ccc2c(-c3c(OCC)ccc4cc(/C=C(\C#N)C(=O)OCC)ccc34)c(OCC)ccc2c1 | > 200 | > 200 | –
NC(=O)Cn1c(=O)[nH]c(=O)c2[nH]cnc21 | > 174 | > 174 | –
O=C(NCCCNC(=O)c1ccc2cc(O)c(O)cc2c1)c1ccc2cc(O)c(O)cc2c1 | – | – | inactive
O=C1CCCc2c(O)ccc(O)c21 | > 380 | 60.3 | –
O=C1/C(=C/c2cccc(Br)c2)CCc2ccccc21 | > 200 | 7.24 | –
CN(C)/N=N/c1nc2c(c(=O)n(C)c(=O)n2C)n1C | > 151 | > 151 | –
COC(=O)c1ccccc1/C=C1\Cc2ccc3ccccc3c2C1C (configuration not stated) | > 200 | > 200 | –
CCOC(=O)c1ccc(C)c(N=NN(C)C)c1 | – | – | inactive
COc1cccc2c1C(c1ccc3ccccc3c1)OC2=O (configuration not stated) | > 46.8 | 25.1 | –
O=C(N/N=C/c1cccc([N+](=O)[O-])c1)C(=O)N/N=C/c1cccc([N+](=O)[O-])c1 | > 100 | > 100 | –
Nc1ncc(N)c(NCC2(CO)CC(CCc3ccccc3)C2)n1 (configuration not stated) | > 200 | 4.9 | –
Cc1ccc(C)c2c1CC(Cc1ccccc1C(=O)O)C2=O (configuration not stated) | > 200 | 158 | –
[O-]c1c2cc(-[n+]3c(-c4ccccc4)cc(-c4ccccc4)cc3-c3ccccc3)cc1CO[C@@H](c1ccccc1)[C@H](c1ccccc1)OCc1cccc(n1)CO[C@@H](c1ccccc1)[C@H](c1ccccc1)OC2 | > 1 | 0.0794 | –
CCOC(=O)c1ccc(C(=O)/C(C(=O)OC(C)(C)C)=C2\CCCN2C)n1C | 89.1 | 141 | –
Nc1cc(=O)[nH]c(=S)n1-c1ccc(Cl)cc1 | > 200 | > 200 | –
C=C1CN(S(=O)(=O)c2ccc(C)cc2)CCCN(CCCC)CCCN(S(=O)(=O)c2ccc(C)cc2)C1 | > 200 | 1.91 | –
CC(=O)OCC1OC(n2cc(C)c(-n3cncn3)nc2=O)CC1N=[N+]=[N-] (configuration not stated) | > 200 | 11.5 | –
CCOC(=O)c1cnc(-n2[nH]c3c(c2=O)CCCC3)[nH]c1=O | > 151 | 29.5 | –
O/N=C1/CC2(N3CCOCC3)C3CC/C(=N\O)C2CC1(Cc1ccccc1)C3 (configuration not stated) | > 200 | 123 | –

SMILES | EC50 [µM] | IC50 [µM] | outcome
CC1(C)C(=O)/C=C\C(=O)C(C)(C)C2=CC=C(O2)C(C)(C)C(=O)/C=C\C(=O)C(C)(C)C2=CC=C1O2 | – | – | inactive
CC1CC(=O)C(C(O)CC2CC(=O)N(c3ccccc3)C(=O)C2)C(C)C1 (configuration not stated) | > 200 | > 200 | –
CC1=NC(C)=C(/C(C)=N/NC(=O)c2ccccc2O)C(C)/C1=C(/C)NNC(=O)c1ccccc1O (configuration not stated) | > 186 | 8.71 | –
FC(F)C(F)(F)N1c2ccccc2Sc2ccccc21 | > 200 | 72.4 | –
COP(=O)(N/N=C/C(=O)O)OC | > 1260 | > 1260 | –
CCOC(=O)Nc1n[nH]nc1Cl | > 200 | > 200 | –
CC(C)OC(=O)[C@H]1ON2O[C@H](O[C@@H]3CCCC[C@H]3c3ccccc3)C([Si](C)(C)c3ccccc3)[C@H]3OC(=O)[C@@H]1C32 (some centres not stated) | > 200 | 158 | –
NC(=O)SCC(=O)Nc1ccc2cccc3c2c1CC3 | – | – | inactive
FC(F)(F)c1nc(-c2ccccc2)oc1Sc1oc(-c2ccccc2)nc1C(F)(F)F | – | – | inactive
O=C(O)CCCCCCCCCc1ccccc1 | > 200 | 107 | –
CC1(S)CC2C(CC1Sc1ccccc1)C2(C)C (configuration not stated) | > 25.7 | > 25.7 | –
O=C1OC(/C=C/c2ccccc2)C(=O)C1=O (configuration not stated) | > 1150 | > 1150 | –
COc1ccc(NC(=O)Oc2ccc3c(C)cc(=O)oc3c2)c(OC)c1 (tested in a mixture with another compound) | > 100 | 46.8 | –
O=C1C2CCSCN2C(=O)N1c1ccccc1 (configuration not stated) | > 40.7 | > 40.7 | –
O=C1CC23CC(=O)CC2(C1)c1ccccc1C3=O (configuration not stated) | > 389 | > 389 | –
CCCCCCCCCCCCCCCCCC1=Nc2ccccc2NC(=O)C1 | > 100 | > 100 | –
CCC1OC2CS(=O)(=O)CC2O1 (configuration not stated) | > 1290 | > 1290 | –
CC1OC(OCC2OC(Oc3ccc(C4CC(=O)c5c(O)cc(O)cc5O4)cc3O)C(O)C(O)C2O)C(O)C(O)C1O (configuration not stated) | > 200 | > 200 | –
CN1CCC[C@H]1C(=O)c1oc(CO)cc(=O)c1O | – | – | inactive
Nc1nc(=Nc2ccccc2)ss1 | – | – | inactive
N#C/C(=C\NC(=S)C(N)=S)c1nc2ccccc2s1 | > 200 | 5.75 | –
